Patent US9573899B2, “USP7 inhibitor compounds and methods of use” (Genentech, Inc., priority 2015, dated 2017)

How the values were obtained:
USP5 = molecular target: T1, USP5 (Homo sapiens, UniProt P45974); test: Ub-Rho110 DUB assay, Table 2, USP5
T1 sequence (P45974 1-858): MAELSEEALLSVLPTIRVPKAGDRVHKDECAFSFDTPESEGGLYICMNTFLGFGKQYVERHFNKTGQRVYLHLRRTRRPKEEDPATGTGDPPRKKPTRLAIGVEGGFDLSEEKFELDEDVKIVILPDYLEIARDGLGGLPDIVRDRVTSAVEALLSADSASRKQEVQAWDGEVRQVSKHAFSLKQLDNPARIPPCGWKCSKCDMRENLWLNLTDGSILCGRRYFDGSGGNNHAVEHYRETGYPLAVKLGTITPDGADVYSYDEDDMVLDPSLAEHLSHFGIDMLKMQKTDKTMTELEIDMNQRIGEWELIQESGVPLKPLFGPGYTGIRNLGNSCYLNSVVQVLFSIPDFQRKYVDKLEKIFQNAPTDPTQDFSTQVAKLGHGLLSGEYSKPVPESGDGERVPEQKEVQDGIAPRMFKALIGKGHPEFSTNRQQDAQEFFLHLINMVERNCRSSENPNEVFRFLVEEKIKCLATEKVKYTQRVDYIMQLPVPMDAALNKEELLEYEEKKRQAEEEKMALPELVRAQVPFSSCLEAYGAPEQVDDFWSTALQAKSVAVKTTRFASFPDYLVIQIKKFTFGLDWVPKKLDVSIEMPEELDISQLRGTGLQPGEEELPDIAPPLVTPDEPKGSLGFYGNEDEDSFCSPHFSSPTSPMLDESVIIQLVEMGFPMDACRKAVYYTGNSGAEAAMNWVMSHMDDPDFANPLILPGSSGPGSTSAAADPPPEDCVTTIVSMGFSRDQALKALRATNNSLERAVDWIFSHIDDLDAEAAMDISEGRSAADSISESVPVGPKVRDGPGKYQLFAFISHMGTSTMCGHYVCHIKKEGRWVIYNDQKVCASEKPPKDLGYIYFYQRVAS

[1] = tested on: MDM2 in MCF7 breast cancer cells; test: MDM2 turnover in MCF7 cells with cycloheximide (FIG. 3A); format: cell-based; details: 15 μM, in the presence of cycloheximide (CHX)
Protocol: In 24-well plates, 0.15×10^6 MCF-7 cells were treated for a total of 8 h with DMSO or compounds (15 μM). During that 8 h, cycloheximide (CHX) was added for the indicated times prior to harvest.

[2] = tested on: p53, p21, MDM2 and E6AP in RKO, RKO-E6, Vibo and SiHA cell lines; test: Western blot in RKO, RKO-E6, Vibo and SiHA cells (FIG. 14A); format: cell-based
Protocol: (§1) In 24-well plates, 0.10-0.15×10^6 (adherent) or 0.5×10^6 (suspension) cells were treated with 15 μM or 2.5 μM compounds, respectively, for 24 h in low serum prior to lysis for Western Blot analysis.

[3] = tested on: p53 and p21 in HCT116 colon cancer cell lines; test: Western blot of p53 and p21 in isogenic HCT116 cell lines (FIG. 2A); format: cell-based, Human; details: isogenic HCT116: wild-type, USP7 null
Protocol: as §1

[4] = tested on: colon cancer cell lines RKO and RKO-E6, and cervical cancer cell lines Vibo and SiHA; test: Incucyte cell proliferation in RKO, RKO-E6, Vibo and SiHA cells (FIG. 15); format: cell-based
Protocol: 2,500-5,000 cells were seeded in 1-well of a 96-well plate (Corning; 3904). The following day, the media was changed from normal (10%) to low serum (0.5%) containing vehicle (DMSO) or compounds. 16-24 h later FBS was added to each well to bring serum levels back to normal (10%). Cells were then allowed to grow for 2 days. All treatments were done in triplicate. The day after cells were seeded, the media was changed to low serum media containing 2 μM CellEvent Caspase 3/7 reagent (Life Technologies; C10423) and compounds. The plates were placed in an IncuCyte (Essen Bioscience, Inc.) live cell imager and scanning was started 15-20 mins after. IncuCyte™ ZOOM facilitates live-cell monitoring via customized imaging protocols. Images were taken every 2 h for at least 3 days, using a 10× objective. Phase contrast was used to measure cell confluency/density while green fluorescence was used to measure caspase activity. The images were analyzed using IncuCyte software (Basic Analysis parameters) and a ratio of caspase activity to cell density was determined.

USP47 = molecular target: T2, USP47 (Homo sapiens, UniProt Q96K76); test: Ub-Rho110 DUB assay, Table 2, USP47; format: biochemical
T2 sequence (Q96K76 1-1375): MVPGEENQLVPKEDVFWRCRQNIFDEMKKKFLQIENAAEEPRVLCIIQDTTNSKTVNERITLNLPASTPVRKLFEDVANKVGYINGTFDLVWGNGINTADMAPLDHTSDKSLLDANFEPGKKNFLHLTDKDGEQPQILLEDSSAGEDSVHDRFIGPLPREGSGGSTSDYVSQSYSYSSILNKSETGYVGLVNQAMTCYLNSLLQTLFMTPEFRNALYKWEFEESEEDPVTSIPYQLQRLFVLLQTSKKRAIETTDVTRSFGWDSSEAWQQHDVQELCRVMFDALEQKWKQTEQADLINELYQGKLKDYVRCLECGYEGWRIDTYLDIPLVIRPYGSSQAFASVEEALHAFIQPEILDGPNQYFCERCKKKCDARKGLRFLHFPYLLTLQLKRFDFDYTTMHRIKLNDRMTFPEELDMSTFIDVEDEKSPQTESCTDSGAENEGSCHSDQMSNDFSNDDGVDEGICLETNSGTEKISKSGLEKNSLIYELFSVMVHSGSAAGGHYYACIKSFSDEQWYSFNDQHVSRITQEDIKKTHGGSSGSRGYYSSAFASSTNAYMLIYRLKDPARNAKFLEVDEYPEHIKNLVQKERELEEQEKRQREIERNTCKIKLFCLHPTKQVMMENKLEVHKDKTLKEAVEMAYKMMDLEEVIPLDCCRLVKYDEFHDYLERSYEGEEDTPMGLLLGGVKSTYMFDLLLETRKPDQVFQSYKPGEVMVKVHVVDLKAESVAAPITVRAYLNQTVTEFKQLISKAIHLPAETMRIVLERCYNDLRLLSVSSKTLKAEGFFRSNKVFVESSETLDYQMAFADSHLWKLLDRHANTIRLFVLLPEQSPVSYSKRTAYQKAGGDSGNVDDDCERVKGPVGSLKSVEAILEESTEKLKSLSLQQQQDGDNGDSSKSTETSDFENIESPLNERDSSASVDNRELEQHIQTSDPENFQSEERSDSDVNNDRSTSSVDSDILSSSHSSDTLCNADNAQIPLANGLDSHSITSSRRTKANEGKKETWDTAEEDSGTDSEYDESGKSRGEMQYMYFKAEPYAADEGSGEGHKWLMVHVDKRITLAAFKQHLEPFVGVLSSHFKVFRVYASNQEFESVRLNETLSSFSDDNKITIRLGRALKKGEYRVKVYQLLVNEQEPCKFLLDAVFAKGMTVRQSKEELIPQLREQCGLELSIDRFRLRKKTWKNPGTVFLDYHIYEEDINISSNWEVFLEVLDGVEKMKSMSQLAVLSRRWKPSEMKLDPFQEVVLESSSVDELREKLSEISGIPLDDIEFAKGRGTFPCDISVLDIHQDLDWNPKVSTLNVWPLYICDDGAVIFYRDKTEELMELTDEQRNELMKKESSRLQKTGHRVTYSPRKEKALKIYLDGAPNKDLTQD

`CCc1c(-c2ccc3cn(C)nc3c2)cnc(N)c1-c1ccc(O)cc1` [Compound 89, 4-[2-amino-4-ethyl-5-(2-methylindazol-6-yl)-3-pyridyl]phenol] was tested, and the IC50 (USP5) was > 200 µM, the “destabilizing effect on MDM2 (western blot)” value [1] was “less active” and the “effect on p53, p21, MDM2 and E6AP (western blot)” value [2] was “stabilize p53, p21, and destabilize MDM2 and E6AP”. The “stabilization of p53 and p21 (western blot)” value [3] was “not”, the “cell viability (Incucyte cell proliferation)” value [4] was “not” and the IC50 (USP47) was > 200 µM.
